Experimental data: EP4678639A1, “SALT OF BENZIMIDAZOLE DERIVATIVE” (JW Pharmaceutical Corporation, priority 2023, dated 2024)
Entries after “also recorded” stand apart in the source; their conditions may differ. Structures can show the parent of a compound that is named as a salt.

Columns and labels:
[1] = Solid-state stress stability test (humidity 90 % RH); settings: for Initial (%) Degradant / Initial (%) Total Related substances: Table 9, initial
Description: Operation and Calculation: The blank solution, standard solution, and test solution were sequentially tested under the instrument operating conditions according to the liquid chromatography method in the General Test Methods of the 12th Edition of the Korean Pharmacopoeia, and the amount of related substances was calculated using the following equation. Amount of each related; substance (%) = (AT)/(AS) × (CS)/(CT) × (Molecular weight; of the sample)/(Molecular weight; of the standard; product) × P × (1)/(RR; F) [formula] AT = Area of each related substance peak obtained from the test solution AS = Area of the tegoprazan peak obtained from the standard solution CS = Concentration of standard solution (mg/mL) CT = Concentration of test solution (mg/mL) P = Purity/Assay/Potency (%) of standard product RRF = Relative response factor (1.0)
A solid-state stability comparative test was conducted on each of the above-mentioned prepared tegoprazan acid addition salts. The stability comparative test was conducted for 1 month under the conditions shown in Table 6 below in accordance with The International Council for Harmonisation of Technical Requirements for Pharmaceuticals for Human Use (ICH) guideline, and the purity of the acid addition salt, total related substances, and the content of degradants were measured by HPLC at the initial time point and after 1 month. Total related substances and degradants were measured according to the related substance test method (HPLC).
3) Stress Stability (humidity 90 % RH)

[2] = Solid-state stress stability test (temperature 60 °C); settings: for Change (%) Degradant: 1 month vs initial; for Initial (%) Degradant / Initial (%) Total Related substances: Table 8, initial
[3] = Photostability test, visible light (1.2 Mlux·hr) exposure; settings: for Initial (%) Degradant / Initial (%) Total Related substances: Table 11, initial; for After (%) Degradant / After (%) Total Related substances: Table 11 under heading Visible Light (1.2 Mlux-hr) Exposure Test
Description: (§1) A photostability comparative test was conducted on each of the above-mentioned prepared tegoprazan acid addition salts. The test was conducted by exposing the sample to light with an energy of 200 W hr/m^2 of ultraviolet light and 1.2 Mlux hr of visible light in accordance with The International Council for Harmonisation of Technical Requirements for Pharmaceuticals for Human Use (ICH) guideline, with the samples packaged in a single PE bag and spread thinly enough to ensure exposure to the light source, taking humidity stability into consideration. The purity of the acid addition salts and the change in the amount of degradants at the initial time point and after exposure to ultraviolet light or visible light were measured by HPLC.

[4] = Photostability test, ultraviolet light (200 W·hr/m2) exposure; settings: for After Ultraviolet Light Exposure (200 W hr/m2)(%) Degradant / After Ultraviolet Light Exposure (200 W hr/m2)(%) Total Related substances: Table 10, UV 200 W·hr/m2, PE bag; for Change (%) Degradant: Table 10, after UV exposure vs initial; for Initial (%) Degradant / Initial (%) Total Related substances: Table 10, initial
Description: as §1

[5] = Solid-state accelerated stability test (40 ± 2 °C/RH 75 ± 5 %); settings: for After 1 Month (%) Degradant / After 1 Month (%) Total Related substances / Change (%) Degradant: 40 ± 2 °C / RH 75 ± 5 %; for Change (%) Degradant: 1 month vs initial; for Initial (%) Total Related substances / Initial (%) Degradant: Table 7, initial; for Initial (%) Degradant: degradant of Formula 4
[6] = Liquid stability comparative test (20 mg/mL in purified water, 40 °C, 24 hours, HPLC); assay type: physicochemical; settings: for Initial Purity (%): initial time point
Description: The analysis conditions are as follows.
Each sample was dissolved in purified water to prepare a solution with a concentration of 20 mg/mL, stored at an external temperature of 40 °C, and analyzed by HPLC at the initial time point and after 24 hours to measure purity, and the change in the generated degradant (Formula 4) was measured. The analysis of total related substances and degradants was performed by taking a liquid from a solution prepared at a concentration of 20 mg/mL, diluting it to a concentration of 4 mg/mL with the diluent of the related substance test method (HPLC), and measuring it as a test solution, and analyzing it according to the related substance test method (HPLC).

[7] = 20 mg/mL in purified water, 40 °C, 24 hours

Compound | After 1 Month (%) Total Related substances ([1]; 90 % RH, 1 month) [%] | Initial (%) Degradant [1] [%] | Initial (%) Total Related substances [1] [%] | After 1 Month (%) Degradant ([2]; 60 °C, 1 month) [%] | After 1 Month (%) Total Related substances ([2]; 60 °C, 1 month) [%] | Change (%) Degradant ([2]; 60 °C) [%] | Initial (%) Degradant [2] [%] | Initial (%) Total Related substances [2] [%] | Initial (%) Degradant [3] [%] | Initial (%) Total Related substances [3] [%] | After (%) Degradant [3] [%] | After (%) Total Related substances [3] [%] | After Ultraviolet Light Exposure (200 W hr/m2)(%) Degradant [4] [%] | After Ultraviolet Light Exposure (200 W hr/m2)(%) Total Related substances [4] [%] | Change (%) Degradant [4] [%] | Initial (%) Degradant [4] [%] | Initial (%) Total Related substances [4] [%] | After 1 Month (%) Degradant [5] [%] | After 1 Month (%) Total Related substances [5] [%] | Initial (%) Total Related substances [5] [%] | other results
Cc1nc2c(O[C@H]3CCOc4cc(F)cc(F)c43)cc(C(=O)N(C)C)cc2[nH]1 [Hydrobromide Salt] | 3.922 | 1.972 | 2.173 | 7.787 | 8.905 | 5.815 | 1.972 | 2.173 | 1.972 | 2.173 | 1.956 | 2.227 | 2.028 | 2.265 | 0.056 | 1.972 | 2.173 | 2.188 | 2.519 | 2.173 | After 1 Month (%) Degradant ([1]; 90 % RH, 1 month): 3.698%; Change (%) Degradant ([1]; 90 % RH, 1 month vs initial): 1.726%; total related substances increased after 1 month ([2]; 60 °C): ≥ 5.0%; change in appearance, change in the color of the solid ([2]; 60 °C, 1 month): change in appearance; Remarks ([2]; 60 °C, 1 month, appearance): Discolorat ion; Remarks ([3]; Table 11, after exposure, appearance): Discolorat ion; changes in appearance ([3]; visible light exposure): changes in appearance; Change (%) Degradant [5]: 0.216%; Initial (%) Degradant [5]: 1.972%; increase in total related substances after 1 month ([5]; accelerated stability): ≥ 0.3%
Cc1nc2c(O[C@H]3CCOc4cc(F)cc(F)c43)cc(C(=O)N(C)C)cc2[nH]1 [Hydrochloride Salt (Amorphous Form)] | 0.335 | – | 0.207 | – | 1.536 | – | – | 0.207 | – | 0.207 | – | 0.637 | – | 0.313 | – | – | 0.207 | – | 0.467 | 0.207 | Amount of Change Degradant (%) [6]: 0.21%; After 24 hours Purity (%) [6, 7]: 99.69%; Initial Purity (%) ([6]; 20 mg/mL in purified water): 99.94%; change ([1]; 90 % RH, 1 month): ≤ 0.15%; Change in Quality (%) 60 °C (4 weeks) Purity ([2]; Table 12 summary): -1.329%; Change in Quality (%) Accelerated (4 weeks) Purity ([5]; Table 12 summary): -0.260%
Cc1nc2c(O[C@H]3CCOc4cc(F)cc(F)c43)cc(C(=O)N(C)C)cc2[nH]1 [Malate Salt] | – | 0.004 | 0.146 | 1.320 | 2.026 | 1.316 | 0.004 | 0.146 | 0.004 | 0.146 | 0.035 | 0.263 | 0.011 | 0.172 | 0.007 | 0.004 | 0.146 | 0.049 | 0.236 | 0.146 | After 24 hours Purity (%) [6, 7]: Solid precipitated; Initial Purity (%) ([6]; 20 mg/mL in purified water): 99.98%; After 24 hours Degradant (%) ([6]; degradant of Formula 4, 20 mg/mL in purified water, 40 °C, 24 hours): Solid precipitated; solid precipitation / solution state ([6]; stored at 40 °C for 24 hours): solid precipitation; also recorded: solids were precipitated; absorb moisture and deliquesce / melted ([1]; 90 % RH): absorb moisture and deliquesce; also recorded: melted; Remarks ([1]; 90 % RH, 1 month, state of the solid): Melted; Change in Quality (%) 90 % RH (4 weeks) Degradant ([1]; Table 12 summary): Melted; Change in Quality (%) 90 % RH (4 weeks) Purity ([1]; Table 12 summary): Melted; Change in Quality (%) 60 °C (4 weeks) Degradant ([2]; Table 12 summary): 1.316%; Change in Quality (%) 60 °C (4 weeks) Purity ([2]; Table 12 summary): -1.880%; Change (%) Degradant ([3]; Table 11, after exposure vs initial): 0.031%; Change in Quality (%) Light (Visible) Degradant ([3]; Table 12 summary): 0.031%; Change in Quality (%) Light (Ultraviolet) Degradant ([4]; Table 12 summary): 0.007%; Change (%) Degradant [5]: 0.045%; Initial (%) Degradant [5]: 0.004%; Change in Quality (%) Accelerated (4 weeks) Degradant ([5]; Table 12 summary): 0.045%; Change in Quality (%) Accelerated (4 weeks) Purity ([5]; Table 12 summary): -0.090%; purity change after 1 month ([5]; accelerated stability): ≤ 0.1%
